Laboratory results from PubChem BioAssay (NCI).
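Assay format: 96-well plates, 48-hour exposure. TGI is the concentration that stops growth completely.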

Key:
Assay in all cases: NCI anticancer screen, dose series, 48 h
SK-MEL-5 melanoma = test system: SK-MEL-5 melanoma
A498 renal = test system: A498 renal
IGROV1 ovarian = test system: IGROV1 ovarian
MDA-N = test system: MDA-N
SK-MEL-2 melanoma = test system: SK-MEL-2 melanoma
NCI/ADR-RES ovarian = test system: NCI/ADR-RES ovarian
NCI-H522 lung = test system: NCI-H522 lung
MOLT-4 leukemia = test system: MOLT-4 leukemia
UO-31 renal = test system: UO-31 renal
UACC-257 melanoma = test system: UACC-257 melanoma
COLO 205 colon = test system: COLO 205 colon
OVCAR-3 ovarian = test system: OVCAR-3 ovarian
BT-549 breast = test system: BT-549 breast
RXF 393 renal = test system: RXF 393 renal
MDA-MB-231 breast = test system: MDA-MB-231 breast
SN12C renal = test system: SN12C renal
786-0 renal = test system: 786-0 renal
SF-539 CNS = test system: SF-539 CNS
HOP-92 NSCLC = test system: HOP-92 NSCLC
SF-295 CNS = test system: SF-295 CNS

SMILES | TGI (SK-MEL-5 melanoma) [µM] | TGI (A498 renal) [µM] | TGI (IGROV1 ovarian) [µM] | TGI (MDA-N) [µM] | TGI (SK-MEL-2 melanoma) [µM] | TGI (NCI/ADR-RES ovarian) [µM] | TGI (NCI-H522 lung) [µM] | TGI (MOLT-4 leukemia) [µM] | TGI (UO-31 renal) [µM] | TGI (UACC-257 melanoma) [µM] | TGI (COLO 205 colon) [µM] | TGI (OVCAR-3 ovarian) [µM] | TGI (BT-549 breast) [µM] | TGI (RXF 393 renal) [µM] | TGI (MDA-MB-231 breast) [µM] | TGI (SN12C renal) [µM] | TGI (786-0 renal) [µM] | TGI (SF-539 CNS) [µM] | TGI (HOP-92 NSCLC) [µM] | TGI (SF-295 CNS) [µM]
CSC1=C(C#N)C(=S)N=C(N)C1C(=O)Nc1ccc(C)cc1 (configuration not stated) | > 100 | > 100 | > 100 | > 100 | > 100 | > 100 | 94.8 | > 100 | > 100 | > 100 | > 100 | > 100 | > 100 | > 100 | > 100 | > 100 | > 100 | > 100 | – | –
C=CC[C@H]1O[Si](C(C)(C)C)(C(C)(C)C)[C@H](C)[C@H]1C | > 100 | > 100 | > 100 | > 100 | > 100 | > 100 | > 100 | > 100 | > 100 | > 100 | > 100 | > 100 | > 100 | – | > 100 | > 100 | > 100 | > 100 | > 100 | > 100
CCOC(=O)c1c(SC(=O)c2ccc(C(C)(C)C)cc2)n(-c2ccccc2)c(=S)n(-c2ccccc2)c1=O | – | > 100 | > 100 | > 100 | – | > 100 | > 100 | > 100 | – | > 100 | > 100 | > 100 | – | > 100 | > 100 | > 100 | > 100 | > 100 | > 100 | > 100
COc1c2c(cc3c1C(=O)c1c(O)cccc1C3=O)CC(O)CC2 (configuration not stated) | > 100 | > 100 | > 100 | > 100 | > 100 | > 100 | – | > 100 | > 100 | > 100 | > 100 | > 100 | 43.1 | – | 51.9 | > 100 | > 100 | > 100 | 40.1 | 46.5
c1ccc(C(C2=Nc3cccc4cccc(c34)N2)c2ccccc2)cc1 | 38.2 | – | > 100 | 49.3 | 50 | 50.5 | 36.3 | – | 51.2 | 68 | 36.7 | 41.5 | 61.4 | 61.5 | > 100 | 30.2 | 69.9 | 34.2 | 44 | 42.8
O=C1N(C2CCCCC2)C(=O)N1C1CCCCC1 | 4.88 | 2.37 | > 100 | 17 | 85.5 | 14.9 | 3.66 | 10.2 | 0.199 | 19.4 | 16.2 | > 100 | 5.29 | – | 15.6 | 16.1 | > 67.6 | 45.1 | 19.5 | 14.3
CN(Cc1cnc2nc(N)nc(N)c2n1)c1ccc(C(=O)NCCS(=O)(=O)O)cc1 | > 100 | > 100 | > 100 | > 100 | > 100 | > 100 | > 100 | > 100 | > 100 | > 100 | > 100 | > 100 | > 100 | – | > 100 | > 100 | > 100 | > 100 | – | > 100
CN(CC(=O)N1CC(CCl)c2ccc([N+](=O)[O-])cc21)CC(=O)N1CC(CCl)c2ccc([N+](=O)[O-])cc21 (configuration not stated) | > 100 | > 100 | > 100 | > 100 | > 100 | > 100 | > 100 | > 100 | > 100 | > 100 | > 100 | > 100 | > 100 | – | > 100 | > 100 | > 100 | > 100 | > 100 | > 100
Cc1ccc(-c2n[nH]c(Cc3nc(-c4ccc(C)cc4)n[nH]3)n2)cc1 | > 100 | – | > 100 | > 100 | > 100 | > 100 | > 100 | > 100 | > 100 | > 100 | > 100 | > 100 | > 100 | > 100 | > 100 | > 100 | > 100 | > 100 | > 100 | > 100
Cc1ccc(N=N/C(=N/NC(=O)c2cc(Cl)ccc2O)c2ccc(N(CCC#N)CCC#N)cc2C)cc1 | 36.4 | 49.5 | > 100 | > 100 | 68.4 | > 100 | 31.4 | > 100 | 64.9 | 47.2 | 44.2 | 55.9 | 88.7 | > 100 | > 100 | 85.6 | > 100 | 46.4 | – | 83.3
COc1cc2c(cc1OC)[C@@H]1[C@H](C#N)C(=O)C(C)(C)N1CC2 | > 100 | > 100 | > 100 | > 100 | – | > 100 | > 100 | > 100 | > 100 | > 100 | > 100 | > 100 | > 100 | – | > 100 | > 100 | > 100 | – | > 100 | > 100
Cc1ccc(Cc2n[nH]c(=O)[nH]2)cc1 | > 100 | > 100 | > 100 | > 100 | > 100 | > 100 | – | > 100 | > 100 | > 100 | > 100 | > 100 | > 100 | – | > 100 | > 100 | > 100 | > 100 | > 100 | > 100
NC1c2c(Br)sc(N3CCCC3)c2C(=O)C1O (configuration not stated) | > 50 | > 50 | > 50 | > 50 | > 50 | > 50 | > 50 | > 50 | > 50 | > 50 | > 50 | > 50 | > 50 | – | > 50 | > 50 | > 50 | > 50 | > 50 | > 50
